According to ChEMBL document CHEMBL2069276, “Identification of a novel serum and glucocorticoid regulated kinase-1 (SGK1) ligand from virtual screening” (Bioorg Med Chem Lett, 2012):
Positions count from the first letter of the chain named. The source made the active and inactive calls. The calls are words filed in the database; no cut-off is given here.

What was measured:
[1] = target: T1, Serine/threonine-protein kinase Sgk1 (Homo sapiens, UniProt O00141); assay: Inhibition of human recombinant SGK1
T1 sequence (O00141 whole entry): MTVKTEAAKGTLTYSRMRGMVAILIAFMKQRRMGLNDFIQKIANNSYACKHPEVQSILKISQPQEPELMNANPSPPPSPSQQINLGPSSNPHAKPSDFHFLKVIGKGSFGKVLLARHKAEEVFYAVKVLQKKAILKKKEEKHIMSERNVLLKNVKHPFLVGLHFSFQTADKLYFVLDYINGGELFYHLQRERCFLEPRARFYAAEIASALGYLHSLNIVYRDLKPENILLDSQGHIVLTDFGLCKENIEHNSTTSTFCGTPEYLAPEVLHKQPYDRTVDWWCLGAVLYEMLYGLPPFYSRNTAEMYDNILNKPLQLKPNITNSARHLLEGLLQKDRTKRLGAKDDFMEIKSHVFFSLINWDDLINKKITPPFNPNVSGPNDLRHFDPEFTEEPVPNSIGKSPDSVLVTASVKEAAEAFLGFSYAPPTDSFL

[2] = tested on: T2, Serine/threonine-protein kinase Sgk1 (Homo sapiens), O00141 [S422D]; assay: Inhibition of SGK1 S422D mutant expressed in human HEK293 cells assessed as inhibition of FOXO3a phosphorylation at Thr 32 at 100 uM after 40 hrs; assay type: cell-based
T2 sequence (whole entry): T1 sequence (O00141 whole entry) with S422D

HEK293 [3] = assay: Induction of vacuolization in human HEK293 cells up to 100 uM; assay type: cell-based
[4] = target: T3, Serine/threonine-protein kinase Sgk1 (Homo sapiens) (UniProt O00141); assay: Inhibition of constitutively active SGK1 expressed in human HEK293 cells assessed as inhibition of FOXO3a phosphorylation at Thr 32 at 100 uM after 40 hrs; assay type: cell-based
T3 sequence (whole entry): T1 sequence (O00141 whole entry)

HEK293 [5] = assay: Induction of vacuolization in human HEK293 cells at >1 uM; assay type: cell-based
[6] = target: T3, Serine/threonine-protein kinase Sgk1 (Homo sapiens); assay: Inhibition of constitutively active SGK1 expressed in human HEK293 cells assessed as inhibition of FOXO3a phosphorylation at Thr 32 after 40 hrs; assay type: cell-based
[7] = tested on: T2, Serine/threonine-protein kinase Sgk1 (Homo sapiens), O00141 [S422D]; assay: Inhibition of SGK1 S422D mutant expressed in human HEK293 cells assessed as inhibition of FOXO3a phosphorylation at Thr 32 after 40 hrs; assay type: cell-based

| IC50 [1] | inhibition [2] | inhibition [4] | inhibition [6] | inhibition [7] | SMILES | Activity (HEK293 [3]) | Activity (HEK293 [5]) |
| --- | --- | --- | --- | --- | --- | --- | --- |
| 60 µM | Active | Active |  |  | COc1ccc(NC(=O)Cc2nc(-c3ccc([N+](=O)[O-])cc3)cs2)cc1 | Non-toxic |  |
|  |  |  | Dose-dependent effect | Dose-dependent effect | O=C(O)c1ccc(-c2c[nH]c3ncc(-c4ccccc4)cc23)cc1C1CCCC1 [GSK-650394] |  | Toxic |
